Source: patent US20260283205A1, “ACYLATED DIHYDROCHALCONES, METHODS OF PRODUCTION AND USES THEREOF” (SYMRISE AG, priority 2023, published 2026)

Columns and labels:
trained flavourist panel = assay: Sensory profile (impact, intensity, mouthfeel, lingering sweetness) of 5% sucrose solution with added compound; assay type: in vivo; details: for Lingering sweetness / Impact / Intensity / Mouthfeel: 5% sucrose solution (A1) + HG 50 ppm, compound 9 15 ppm, 41 5 ppm, 57 3 ppm, 73 5 ppm, 89 5 ppm; for Lingering sweetness: sucrose alone scores 1; for Impact: sucrose alone scores 3; for Intensity / Mouthfeel: sucrose alone scores 4
Method: A 5% sucrose solution was prepared. Compounds 9, 41, 57, 73 and 89 were provided as described in Example 3 and purified to >95% with preparative chromatography.
The sensory profile of the sucrose solution (control) and the sucrose solution including HG (control), compounds 9, 41, 57, 73 or 89 was determined by a trained flavourist panel comparing the impact, intensity and mouthfeel.

[1] = system: trained sensory panel (n=20); assay: Paired comparison tests (Duo test): sweetness increase of 5% sucrose solution in water; assay type: in vivo; parameters: unit not given here; details: dosage HG 50, compound 9 10, 41 5, 57 3, 73 5, 89 5 mg/kg
Method: The sensory impact of the compounds 9, 41, 57, 73 and 89 on a 5% sucrose solution in water was analysed by a trained sensory panel (n=20) using a series of paired comparison tests (Duo test). The samples were coded and randomized.

[2] = system: panel of five flavorists (n=5); assay: Taste descriptors (scale 0-9) of sugar base with sweet tasting / sweet taste modulating substances, without (A) and with (B) compound 41 or 57; assay type: in vivo; details: for Lingering sweetness (0-9), Δ (B-A) / Mouthfeel (0-9), Δ (B-A) / Onset sweetness (0-9), Δ (B-A) / Overall sweetness (0-9), Δ (B-A) / Mouthfeel (0-9), sample A / Lingering sweetness (0-9), sample A / Onset sweetness (0-9), sample A / Overall sweetness (0-9), sample A: scale 0-9; for Mouthfeel (0-9), sample A / Lingering sweetness (0-9), sample A / Onset sweetness (0-9), sample A / Overall sweetness (0-9), sample A: n=5; for Onset sweetness (0-9), A / Overall sweetness (0-9), A: samples (A): sugar base (5% sucrose+0.1% citric acid) + PH 25, HT 12, HC 50, RS 75, LHG 20, PD 3 or SG 60 mg/kg, without compound 41; for Onset sweetness (0-9), A: base alone 2.0; for Overall sweetness (0-9), A: base alone 3.0
Method: A sugar base (5% sucrose+0.1% citric acid) was provided. Further, the sweet tasting substances RS (20% Rubusoside), SG (90% steviol oligoglucosides), HC (8% Hesperetin dihydrochalcone), LHG (52% mogroside V) and the sweet taste modulating substances PD (>95% Phyllodulcin), HT (>85% Hesperetin) and PH (>98% Phloretin) were provided and added to the sugar base to produce different samples (A).
A dose of 2 mg/kg compound 41 or, respectively, 1.2 mg/kg compound 57 was added to the samples to obtain samples (B).
Different taste descriptors were compared between the respective samples (A) and (B) by a panel of five flavorists (n=5) using a scale of 0-9.
The panelists were asked to neutralize with tap water between each sample and the intensity of the descriptors of each sample were defined before tasting the next sample. The tasting of each RS, SG, HC, LHG, PD, HT or PH (samples (A)) were followed by the samples with added RS, SG, HC, LHG, PD, HT or PH+compound (41 or 57) (samples (B)) with each being compared to the intensities of the base.

[3] = system: panel of 20 trained panellists; assay: Intrinsic sweetness: concentration in water equally sweet as a 1.5% sucrose solution; assay type: in vivo; details: no significant difference (p<0.05) to 1.5% sucrose
Method: Compounds 9, 41, 57, 73 and 89 were provided as described in Example 3 and purified to >95% with preparative chromatography. The obtained compounds were used for sensory evaluations.
The intrinsic sweetness of the compounds was determined by a panel of 20 trained panellists. The intrinsic sweetness of a compound is determined by evaluating the sweetness of the compound at different concentrations in water against a 1.5% sucrose solution.
A mixture of butanoylated HG and a mixture of pentanoylated HG were provided as described in Example 3.
The intrinsic sweetness was determined as described in Example 4. As shown in the table, the concentrations of the acylated compounds, which represent equal sweetness as the 1.5% sucrose solution, are approximately ⅕ to ⅛ of the required concentration of HG (non-acylated). Thus, acylation of HG provides a strong increase of the intrinsic sweetness.

[4] = system: panel of five flavorists (n=5); assay: Sweet taste modulation in lemonade bases with reduced sugar content, descriptor intensities 0-9; assay type: in vivo; details: 5 mg/kg compound 41 or 3 mg/kg compound 57, intensity 0-9
Method: A dose of 5 mg/kg compound 41 or, respectively, 3 mg/kg compound 57 were applied to different sugar reduced lemonade bases to restore the overall and sweet taste of the respective matrix with reduced sugar content. Different descriptors were determined by a panel of five flavorists (n=5) and given as intensities from 0-9.
The lemonade bases were “full sugar”, “sugar reduced”, “Stevia Hybride”, “Sugar free base Suc/Ace K” and “Sugar free base Asp/Ace K” with the following recipes: […]

[5] = cited from earlier work
[6] = difference between sample B (+1.2 mg/kg compound 57) and sample A
[7] = lemonade base "Sugar free base Asp/Ace K"
[8] = lemonade base "Sugar free base Suc/Ace K"
[9] = compound 41 series, sample A: sugar base (5% sucrose+0.1% citric acid) + sample substance alone at the listed dose (PH 25, HT 12, HC 50, RS 75, LHG 20, PD 3, SG 60 mg/kg)
[10] = compound 41 series, sample A: sugar base + sample substance alone at the listed dose
[11] = compound 57 series, sample A: sugar base + sample substance alone at the listed dose
[12] = difference between sample B (+2 mg/kg compound 41) and sample A

CCCCC(=O)OC[C@H]1O[C@@H](Oc2cc(O)c(C(=O)CCc3ccc(OC)c(O)c3)c(O)c2)[C@H](O)[C@@H](O)[C@@H]1O [Compound 57, 6″-O-Pentanoyl-HG]
Lingering sweetness (trained flavourist panel): 3 | Impact (trained flavourist panel): 4-5 | Intensity (trained flavourist panel): 5-6 | Mouthfeel (trained flavourist panel): 5 | Increase of sweetness [1]: 25.2 | Lingering sweetness (0-9), Δ (B-A) [2, 6]: 1.0 | Mouthfeel (0-9), Δ (B-A) [2, 6]: 0.5 | Onset sweetness (0-9), Δ (B-A) [2, 6]: 0.5 | Overall sweetness (0-9), Δ (B-A) [2, 6]: 1.0 | Concentration of equal sweetness as 1.5% sucrose control [3]: 3 mg/kg | Lingering sweetness ([4]; lemonade base "Stevia Hybrid"): 2.5 | Mouthfeel ([4]; lemonade base "Stevia Hybrid"): 5 | Onset ([4]; lemonade base "Stevia Hybrid"): 4 | Overall sweetness ([4]; lemonade base "Stevia Hybrid"): 6 | Lingering sweetness [4, 7]: 3.5 | Mouthfeel [4, 7]: 3.5 | Onset [4, 7]: 3.5 | Overall sweetness [4, 7]: 5 | Lingering sweetness [4, 8]: 4 | Mouthfeel [4, 8]: 2.5 | Onset [4, 8]: 3 | Overall sweetness [4, 8]: 5 | Lingering sweetness ([4]; lemonade base "Sugar reduced"): 2 | Mouthfeel ([4]; lemonade base "Sugar reduced"): 4 | Onset ([4]; lemonade base "Sugar reduced"): 4 | Overall sweetness ([4]; lemonade base "Sugar reduced"): 4.5

COc1ccc([C@H]2Cc3cccc(O)c3C(=O)O2)cc1O [PD, Phyllodulcin]
Mouthfeel (0-9), sample A [2, 9]: 4.0 | Lingering sweetness (0-9), sample A [2, 10]: 1.0 | Lingering sweetness (0-9), sample A [2, 11]: 1.0 | Mouthfeel (0-9), sample A [2, 11]: 3.5 | Onset sweetness (0-9), sample A [2, 11]: 2.5 | Overall sweetness (0-9), sample A [2, 11]: 4.0 | Lingering sweetness (0-9), Δ (B-A) [2, 6]: 0.5 | Mouthfeel (0-9), Δ (B-A) [2, 6]: 1.0 | Onset sweetness (0-9), Δ (B-A) [2, 6]: 0.5 | Overall sweetness (0-9), Δ (B-A) [2, 6]: 1.0 | Lingering sweetness (0-9), Δ (B-A) [2, 12]: 1.0 | Mouthfeel (0-9), Δ (B-A) [2, 12]: 0.5 | Onset sweetness (0-9), A [2]: 2.5 | Overall sweetness (0-9), A [2]: 4.0

O=C(CCc1ccc(O)cc1)c1c(O)cc(O)cc1O [PH, Phloretin]
Mouthfeel (0-9), sample A [2, 9]: 4.0 | Lingering sweetness (0-9), sample A [2, 10]: 0.0 | Lingering sweetness (0-9), sample A [2, 11]: 0.0 | Mouthfeel (0-9), sample A [2, 11]: 3.5 | Onset sweetness (0-9), sample A [2, 11]: 2.5 | Overall sweetness (0-9), sample A [2, 11]: 3.5 | Lingering sweetness (0-9), Δ (B-A) [2, 6]: 1.5 | Mouthfeel (0-9), Δ (B-A) [2, 6]: 0.5 | Onset sweetness (0-9), Δ (B-A) [2, 6]: 0.5 | Overall sweetness (0-9), Δ (B-A) [2, 6]: 1.0 | Lingering sweetness (0-9), Δ (B-A) [2, 12]: 1.0 | Mouthfeel (0-9), Δ (B-A) [2, 12]: 0.5 | Onset sweetness (0-9), A [2]: 3.0 | Overall sweetness (0-9), A [2]: 4.0

COc1ccc([C@@H]2CC(=O)c3c(O)cc(O)cc3O2)cc1O [HT, Hesperetin]
Mouthfeel (0-9), sample A [2, 9]: 3.5 | Lingering sweetness (0-9), sample A [2, 10]: 0.0 | Lingering sweetness (0-9), sample A [2, 11]: 0.0 | Mouthfeel (0-9), sample A [2, 11]: 3.5 | Onset sweetness (0-9), sample A [2, 11]: 2.5 | Overall sweetness (0-9), sample A [2, 11]: 3.5 | Lingering sweetness (0-9), Δ (B-A) [2, 6]: 2.0 | Mouthfeel (0-9), Δ (B-A) [2, 6]: 0.5 | Onset sweetness (0-9), Δ (B-A) [2, 6]: 1.0 | Overall sweetness (0-9), Δ (B-A) [2, 6]: 1.5 | Lingering sweetness (0-9), Δ (B-A) [2, 12]: 1.0 | Mouthfeel (0-9), Δ (B-A) [2, 12]: 0.5 | Onset sweetness (0-9), A [2]: 2.5 | Overall sweetness (0-9), A [2]: 3.5

CCCCCC(=O)OC[C@H]1O[C@@H](Oc2cc(O)c(C(=O)CCc3ccc(OC)c(O)c3)c(O)c2)[C@H](O)[C@@H](O)[C@@H]1O [Compound 73, 6″-O-Hexanoyl-HG]
Lingering sweetness (trained flavourist panel): 3-4 | Impact (trained flavourist panel): 4-5 | Intensity (trained flavourist panel): 6-7 | Mouthfeel (trained flavourist panel): 5 | Increase of sweetness [1]: 23.1 | Concentration of equal sweetness as 1.5% sucrose control [3]: 5 mg/kg

CCCCCCC(=O)OC[C@H]1O[C@@H](Oc2cc(O)c(C(=O)CCc3ccc(OC)c(O)c3)c(O)c2)[C@H](O)[C@@H](O)[C@@H]1O [Compound 89, 6″-O-Heptanoyl-HG]
Lingering sweetness (trained flavourist panel): 3-4 | Impact (trained flavourist panel): 4-5 | Intensity (trained flavourist panel): 6-7 | Mouthfeel (trained flavourist panel): 5 | Increase of sweetness [1]: 27.7 | Concentration of equal sweetness as 1.5% sucrose control [3]: 5 mg/kg

CCCC(=O)OC[C@H]1O[C@@H](Oc2cc(O)c(C(=O)CCc3ccc(OC)c(O)c3)c(O)c2)[C@H](O)[C@@H](O)[C@@H]1O [Compound 41, 6″-O-Butanoyl-HG]
Lingering sweetness (trained flavourist panel): 2-3 | Impact (trained flavourist panel): 4-5 | Intensity (trained flavourist panel): 5-6 | Mouthfeel (trained flavourist panel): 5 | Increase of sweetness [1]: 24.4 | Lingering sweetness (0-9), Δ (B-A) [2, 12]: 1.0 | Mouthfeel (0-9), Δ (B-A) [2, 12]: 1.0 | Concentration of equal sweetness as 1.5% sucrose control [3]: 5 mg/kg | Lingering sweetness ([4]; lemonade base "Stevia Hybrid"): 1 | Mouthfeel ([4]; lemonade base "Stevia Hybrid"): 4.5 | Onset ([4]; lemonade base "Stevia Hybrid"): 4 | Overall sweetness ([4]; lemonade base "Stevia Hybrid"): 5.5 | Lingering sweetness [4, 7]: 2.5 | Mouthfeel [4, 7]: 3.5 | Onset [4, 7]: 4 | Overall sweetness [4, 7]: 5 | Lingering sweetness [4, 8]: 3 | Mouthfeel [4, 8]: 2 | Onset [4, 8]: 2.5 | Overall sweetness [4, 8]: 4.5 | Lingering sweetness ([4]; lemonade base "Sugar reduced"): 0.5 | Mouthfeel ([4]; lemonade base "Sugar reduced"): 3.5 | Onset ([4]; lemonade base "Sugar reduced"): 4 | Overall sweetness ([4]; lemonade base "Sugar reduced"): 4.5

COc1ccc(CCC(=O)c2c(O)cc(O[C@H]3O[C@@H](CO)[C@H](O)[C@@H](O)[C@@H]3O)cc2O)cc1O [HG, hesperetin dihydrochalcone-4′-O-β-d-glucoside, reference compound]
effect on impact, intensity and mouthfeel of the sucrose solution (trained flavourist panel; 5% sucrose solution): increases the impact, intensity and mouthfeel | Lingering sweetness (trained flavourist panel): 2 | Impact (trained flavourist panel): 4 | Intensity (trained flavourist panel): 5 | Mouthfeel (trained flavourist panel): 4-5 | Increase of sweetness [1]: 34.6 | Concentration of equal sweetness as 1.5% sucrose control [3]: 50 mg/kg | sweet taste of HG in water ([5]; 5 mg/kg HG in water): does not taste sweet | isosweet sucrose concentration ([5]; 10 mg/kg HG in water): 0.5% | isosweet sucrose solution concentration ([5]; 20 mg/kg HG in water): 1%

COc1ccc(CCC(=O)c2c(O)cc(O[C@@H]3O[C@H](COC(C)=O)[C@@H](O)[C@H](O)[C@H]3O)cc2O)cc1O [Compound 9, 6″-O-Acetyl-HG]
Lingering sweetness (trained flavourist panel): 2 | Impact (trained flavourist panel): 3 | Intensity (trained flavourist panel): 4-5 | Mouthfeel (trained flavourist panel): 4-5 | Increase of sweetness [1]: 33.1 | Concentration of equal sweetness as 1.5% sucrose control [3]: 15 mg/kg
